Source: ChEMBL document CHEMBL2311486, “Development of vizantin, a safe immunostimulant, based on the structure-activity relationship of trehalose-6,6'-dicorynomycolate” (J Med Chem, 2013)
Activity calls are given as the source filed them. The rule behind the calls is not given here.

Experiments:
Mus musculus [1] = experiment: Immunostimulatory activity in ICR mouse assessed as induction of IL-6 release at 100 uM, iv after 2 hrs by ELISA; format: functional, organism-based
Mus musculus [2] = experiment: Immunostimulatory activity in ICR mouse assessed as induction of MIP-1beta release at 100 uM, iv after 2 hrs by ELISA; format: functional, organism-based
Macrophage [3] = experiment: Immunostimulatory activity in ICR mouse macrophage assessed as induction of phagocytic activity at 50 uM after 2 hrs by fluorescent microsphere assay; format: functional, cell-based
DLD-1 = experiment: Immunostimulatory activity in human DLD1 cells assessed as induction of MIP-1beta release at 100 uM after 3 hrs by ELISA; format: functional, cell-based
THP-1 [4] = experiment: Immunostimulatory activity in human THP1 cells assessed as induction of MIP-1beta release at 100 uM after 3 hrs by ELISA; format: functional, cell-based
Mus musculus [5] = experiment: Antitumor activity against mouse B16F0 cells allografted in C57BL/6 mouse assessed as inhibition of lung metastasis at 1000 ug, iv administered at 7-day interval over 14 days prior to tumor implantation measured on day 28 relative to control; format: functional
Macrophage [6] = experiment: Immunostimulatory activity in ICR mouse macrophage assessed as induction of phagocytic activity measuring IL-6 secretion at 50 uM after 2 hrs by ELISA; format: functional, cell-based
Macrophage [7] = experiment: Immunostimulatory activity in ICR mouse macrophage assessed as induction of phagocytic activity measuring MIP-1beta secretion at 50 uM after 2 hrs by ELISA; format: functional, cell-based
A549 = experiment: Immunostimulatory activity in human A549 cells assessed as induction of MIP-1beta release at 100 uM after 3 hrs by ELISA; format: functional, cell-based
THP-1 [8] = experiment: Cytotoxicity against human THP1 cells assessed as induction of TNF-alpha release; format: cell-based
[9] = Antitumor activity against mouse B16F0 cells allografted in C57BL/6 mouse assessed as inhibition of lung metastasis at 100 ug, iv administered at 7-day interval over 14 days prior to tumor implantation measured on day 28 relative to control; format: functional
Mus musculus [10] = experiment: Antitumor activity against mouse B16F0 cells allografted in C57BL/6 mouse assessed as inhibition of lung metastasis at 500 ug, iv administered at 7-day interval over 14 days prior to tumor implantation measured on day 28 relative to control; format: functional
Salmonella typhimurium = experiment: Genotoxicity in Salmonella typhimurium TA98 after 30 mins by Ames test; format: toxicity, organism-based; details: salmonella enterica subsp. enterica serovar typhimurium, 0.5 h
Mus musculus [11] = experiment: Toxicity in mouse assessed as mortality at 50 mg, ip administered at 7-day interval; format: organism-based; details: in vivo
[12] = Antitumor activity against mouse B16F0 cells allografted in C57BL/6 mouse assessed as inhibition of lung metastasis at 100 ug, iv administered at 7-day interval over 14 days prior to tumor implantation measured on day 21 relative to control; format: functional

CCCCCCCCC(CCCCCCCC)CC(=O)OC[C@H]1O[C@H](O[C@H]2O[C@H](COC(=O)CC(CCCCCCCC)CCCCCCCC)[C@@H](O)[C@H](O)[C@H]2O)[C@H](O)[C@@H](O)[C@@H]1O
Activity (Mus musculus [1]): Active | Activity (Mus musculus [2]): Active

CCCCCCCCCCCCC(CCCCCCCCCCCC)C(=O)OC[C@H]1O[C@H](O[C@H]2O[C@H](COC(=O)C(CCCCCCCCCCCC)CCCCCCCCCCCC)[C@@H](O)[C@H](O)[C@H]2O)[C@H](O)[C@@H](O)[C@@H]1O
Activity (Mus musculus [1]): Active | Activity (Mus musculus [2]): Active

CCCCCCCCCC(CCCCCCCCC)C(=O)OC[C@H]1O[C@H](O[C@H]2O[C@H](COC(=O)C(CCCCCCCCC)CCCCCCCCC)[C@@H](O)[C@H](O)[C@H]2O)[C@H](O)[C@@H](O)[C@@H]1O
Activity (Mus musculus [1]): Active | Activity (Mus musculus [2]): Active

CCCCCCCCCCCCCCC(CCCCCCCCCCCCCC)CC(=O)OC[C@H]1O[C@H](O[C@H]2O[C@H](COC(=O)CC(CCCCCCCCCCCCCC)CCCCCCCCCCCCCC)[C@@H](O)[C@H](O)[C@H]2O)[C@H](O)[C@@H](O)[C@@H]1O
Activity (Mus musculus [1]): Active | Activity (Mus musculus [2]): Active

CCCCCCCCCCCCCCCCC(CCCCCCCCCCCCCC)C(=O)OC[C@H]1O[C@H](O[C@H]2O[C@H](COC(=O)C(CCCCCCCCCCCCCC)CCCCCCCCCCCCCCCC)[C@@H](O)[C@H](O)[C@H]2O)[C@H](O)[C@@H](O)[C@@H]1O (stereo not given in full)
Activity (Mus musculus [1]): Active | Activity (Macrophage [3]): Active | Activity (Mus musculus [2]): Active

CCCCCCCCCCCCCCCC(CCCCCCCCCCCCCCC)C(=O)OC[C@H]1O[C@H](O[C@H]2O[C@H](COC(=O)C(CCCCCCCCCCCCCCC)CCCCCCCCCCCCCCC)[C@@H](O)[C@H](O)[C@H]2O)[C@H](O)[C@@H](O)[C@@H]1O
Activity (Mus musculus [1]): Active | Activity (Mus musculus [2]): Active

CCCCCCCCCCCCCC(CCCCCCCCCCCCC)C(=O)OC[C@H]1O[C@H](O[C@H]2O[C@H](COC(=O)C(CCCCCCCCCCCCC)CCCCCCCCCCCCC)[C@@H](O)[C@H](O)[C@H]2O)[C@H](O)[C@@H](O)[C@@H]1O
Activity (Mus musculus [1]): Active | Activity (Mus musculus [2]): Active

CCCCCCCCCCCCCC(CCCCCCCCCCCCC)CC(=O)OC[C@H]1O[C@H](O[C@H]2O[C@H](COC(=O)CC(CCCCCCCCCCCCC)CCCCCCCCCCCCC)[C@@H](O)[C@H](O)[C@H]2O)[C@H](O)[C@@H](O)[C@@H]1O
Activity (Mus musculus [1]): Active | Activity (Mus musculus [2]): Active

CCCCCCCCCCCCCCC[C@@H](O)[C@@H](CCCCCCCCCCCCCC)C(=O)OC[C@H]1O[C@H](O[C@H]2O[C@H](COC(=O)[C@H](CCCCCCCCCCCCCC)[C@H](O)CCCCCCCCCCCCCCC)[C@@H](O)[C@H](O)[C@H]2O)[C@H](O)[C@@H](O)[C@@H]1O
Activity (DLD-1): inactive | Activity (THP-1 [4]): inactive | inhibition (INH) (Mus musculus [5]): 41% | Activity (Mus musculus [1]): Active | Activity (Macrophage [6]): Active | Activity (Macrophage [7]): Active | Activity (Macrophage [3]): Active | Activity (Mus musculus [2]): Active | Activity (A549): inactive

CCCCCCCCCCCC(CCCCCCCCCCC)CC(=O)OC[C@H]1O[C@H](O[C@H]2O[C@H](COC(=O)CC(CCCCCCCCCCC)CCCCCCCCCCC)[C@@H](O)[C@H](O)[C@H]2O)[C@H](O)[C@@H](O)[C@@H]1O
Activity (Mus musculus [1]): Active | Activity (Mus musculus [2]): Active

CCCCCCCCCCCC(CCCCCCCCCCC)C(=O)OC[C@H]1O[C@H](O[C@H]2O[C@H](COC(=O)C(CCCCCCCCCCC)CCCCCCCCCCC)[C@@H](O)[C@H](O)[C@H]2O)[C@H](O)[C@@H](O)[C@@H]1O
Activity (Mus musculus [1]): Active | Activity (Mus musculus [2]): Active

CCCCCCCCCCCC(=O)O
Activity (Macrophage [3]): inactive

CCCCCCCCCCC(CCCCCCCCCC)CC(=O)OC[C@H]1O[C@H](O[C@H]2O[C@H](COC(=O)CC(CCCCCCCCCC)CCCCCCCCCC)[C@@H](O)[C@H](O)[C@H]2O)[C@H](O)[C@@H](O)[C@@H]1O
Activity (Mus musculus [1]): Active | Activity (Mus musculus [2]): Active

CCCCCCCCCCCCCCC[C@@H](OC)[C@@H](CCCCCCCCCCCCCC)C(=O)OC[C@H]1O[C@H](O[C@H]2O[C@H](COC(=O)[C@H](CCCCCCCCCCCCCC)[C@@H](CCCCCCCCCCCCCCC)OC)[C@@H](O)[C@H](O)[C@H]2O)[C@H](O)[C@@H](O)[C@@H]1O
Activity (Macrophage [6]): Active | Activity (Macrophage [7]): Active | Activity (Macrophage [3]): Active

CCCCCCCCC(CCCCCCCC)CCC(=O)OC[C@H]1O[C@H](O[C@H]2O[C@H](COC(=O)CCC(CCCCCCCC)CCCCCCCC)[C@@H](O)[C@H](O)[C@H]2O)[C@H](O)[C@@H](O)[C@@H]1O
Activity (Macrophage [3]): inactive

CCCCCCCCCC(CCCCCCCCC)CC(=O)OC[C@H]1O[C@H](O[C@H]2O[C@H](COC(=O)CC(CCCCCCCCC)CCCCCCCCC)[C@@H](O)[C@H](O)[C@H]2O)[C@H](O)[C@@H](O)[C@@H]1O [VIZANTIN]
Activity (DLD-1): inactive | Activity (THP-1 [4]): Active | Activity (THP-1 [8]): Non-toxic | inhibition (INH) (Mus musculus [5]): 66% | Activity (Mus musculus [1]): Active | Activity (Macrophage [3]): Active | Activity (Mus musculus [2]): Active | inhibition (INH) [9]: 57% | inhibition (INH) (Mus musculus [10]): 62% | Activity (Salmonella typhimurium): Non-toxic | Activity (A549): inactive | Activity (Mus musculus [11]): Non-toxic | inhibition (INH) [12]: >98%

CCCCCCCCCCCCC(CCCCCCCCCCCC)CC(=O)OC[C@H]1O[C@H](O[C@H]2O[C@H](COC(=O)CC(CCCCCCCCCCCC)CCCCCCCCCCCC)[C@@H](O)[C@H](O)[C@H]2O)[C@H](O)[C@@H](O)[C@@H]1O
Activity (Mus musculus [1]): Active | Activity (Mus musculus [2]): Active

CCCCCCCCCCCCCCC(CCCCCCCCCCCCCC)C(=O)OC[C@H]1O[C@H](O[C@H]2O[C@H](COC(=O)C(CCCCCCCCCCCCCC)CCCCCCCCCCCCCC)[C@@H](O)[C@H](O)[C@H]2O)[C@H](O)[C@@H](O)[C@@H]1O
Activity (Mus musculus [1]): Active | Activity (Mus musculus [2]): Active

CCCCCCCCCC(CCCCCCCCC)CCC(=O)OC[C@H]1O[C@H](O[C@H]2O[C@H](COC(=O)CCC(CCCCCCCCC)CCCCCCCCC)[C@@H](O)[C@H](O)[C@H]2O)[C@H](O)[C@@H](O)[C@@H]1O
Activity (Macrophage [3]): inactive

CCCCCCCCCCC(CCCCCCCCCC)C(=O)OC[C@H]1O[C@H](O[C@H]2O[C@H](COC(=O)C(CCCCCCCCCC)CCCCCCCCCC)[C@@H](O)[C@H](O)[C@H]2O)[C@H](O)[C@@H](O)[C@@H]1O
Activity (DLD-1): inactive | Activity (THP-1 [4]): inactive | Activity (Mus musculus [1]): Active | Activity (Macrophage [3]): Active | Activity (Mus musculus [2]): Active | Activity (A549): inactive

CCCCCCCCCCCCCCCCC(CCCCCCCCCCCCCCCC)C(=O)OC[C@H]1O[C@H](O[C@H]2O[C@H](COC(=O)C(CCCCCCCCCCCCCCCC)CCCCCCCCCCCCCCCC)[C@@H](O)[C@H](O)[C@H]2O)[C@H](O)[C@@H](O)[C@@H]1O
Activity (Mus musculus [1]): Active | Activity (Mus musculus [2]): Active

CCCCCCCCC(CCCCCCCC)C(=O)OC[C@H]1O[C@H](O[C@H]2O[C@H](COC(=O)C(CCCCCCCC)CCCCCCCC)[C@@H](O)[C@H](O)[C@H]2O)[C@H](O)[C@@H](O)[C@@H]1O
Activity (Mus musculus [1]): Active | Activity (Mus musculus [2]): Active
